Test results reported in paper PMC5130025, “A new antiproliferative noscapine analogue: chemical synthesis and biological evaluation” (Oncotarget, 2016).

Tests used:
[1] = tested on: SKBR-3 breast cancer cell line; assay: MTT assay, SKBR-3; format: cell-based; details: Homo sapiens, SK-BR-3; SKBR-3, 24 h treatment (21 h + 3 h MTT); read-out: IC50, cell viability (MTT)
Method: (§1) The human breast cancer cell lines SKBR-3 and paclitaxel-resistant SKBR-3 were kindly provided by Marc St. George (University of Alberta, Canada). Both cell lines were grown in RPMI 1640 medium (GIBCO) with 10% fetal calf serum and 1 mM L-glutamine 1% penicillin/streptomycin mixture under a humidified atmosphere containing 5% CO2. Addition of 16.65 nM paclitaxel to the paclitaxel-resistant cell line is mandatory to keep the acquired resistance at the same efficiency level.
(§2) The human breast cancer cell lines SKBR-3 and paclitaxel-resistant SKBR-3 (1 × 10^4 cells per well) were seeded into 96-well plates. […] After 21 h incubation, 50 μL of MTT (1 mg/mL) solution was added and the plates were incubated for an additional 3 h. After centrifugation, supernatant was removed from each well and […] of dimethyl sulfoxide (DMSO) was added to dissolve the insoluble formazan crystals. The absorbance was measured at 570 nm and 690 nm subtracted as a background, using microplate reader. The data was plotted using GraphPad Prism 5.0 software. IC50 and statistical analysis (t-test) were calculated using the same software.

[2] = tested on: paclitaxel-resistant SKBR-3 breast cancer cell line; assay: MTT assay, paclitaxel-resistant SKBR-3; format: cell-based; details: Homo sapiens, SK-BR-3, paclitaxel-resistant SKBR-3, 24 h treatment (21 h + 3 h MTT); read-out: IC50, cell viability (MTT)
Method: as §1, §2

tubulin = assay: Microtubule assembly assay (turbidity); format: biochemical; details: 10 μM compound, tubulin 3 mg/mL, 37°C, turbidity at 340 nm
Method: The turbidity was recorded on 96-half area well plates by microplate reader at 340 nm as an indicator for microtubules formation. […] Tubulin at a concentration of 3mg/mL in tubulin buffer (80 mM PIPES pH 6.9, 2 mM MgCl2, 0.5 mM EGTA, 1 mM GTP, 10.2% glycerol) was kept at 4°C before being added to the wells and shifting to 37°C. The absorbance was measured using the kinetic absorbance mode. DMSO solutions of paclitaxel and colchicine (10 μM) were used as controls.

[3] = target: Porcine brain tubulin (unfractionated); assay: Tryptophan fluorescence quenching binding assay, porcine brain tubulin; details: dissociation constant, calculated
βI,βI-tubulin = target: T1, βI,βI-tubulin (Homo sapiens, UniProt P07437); assay: Tryptophan fluorescence quenching binding assay, recombinant βI,βI-tubulin homodimer; details: dissociation constant, calculated
T1 construct: made in house; host or cells: E. coli BL21 (DE3)
T1 sequence (P07437 whole entry): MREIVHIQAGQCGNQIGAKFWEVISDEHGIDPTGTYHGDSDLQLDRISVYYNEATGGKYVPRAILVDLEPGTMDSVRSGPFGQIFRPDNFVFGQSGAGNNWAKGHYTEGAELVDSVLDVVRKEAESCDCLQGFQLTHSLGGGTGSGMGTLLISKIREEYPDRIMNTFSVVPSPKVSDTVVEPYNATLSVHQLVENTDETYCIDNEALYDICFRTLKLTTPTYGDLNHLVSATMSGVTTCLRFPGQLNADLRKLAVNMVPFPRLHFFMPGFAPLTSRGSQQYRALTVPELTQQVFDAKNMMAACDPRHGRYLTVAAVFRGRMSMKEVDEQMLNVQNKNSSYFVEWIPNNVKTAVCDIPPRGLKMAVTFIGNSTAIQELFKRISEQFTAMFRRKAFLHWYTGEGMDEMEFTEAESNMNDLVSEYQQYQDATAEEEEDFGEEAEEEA
Method: (§3) The protein sequence of human αI-tubulin is given by UniProtKB accession number Q71U36 (gene name TUBA1A), the protein sequence of human βI-tubulin is given by UniProtKB accession number P07437 (gene name TUBB) and that of human βIII-tubulin is given by UniProtKB accession number Q13509 (gene name TUBB3). The cloning work for αI- and βI-tubulin was performed and reported previously. For the βIII human tubulin protein, the sequence was converted into DNA sequences with codons optimized for production in Escherichia coli, and for purification purposes, a His-tag was added at the N-terminus. The βIII-tubulin gene was inserted into a pET15b vector between the XhoI and NdeI restriction sites. The correct sequence, insertion, and orientation of the tubulin constructs were verified by DNA sequencing. Recombinant proteins were expressed in E. coli BL21 (DE3) host cells in LB medium supplemented with 100 μg/mL ampicillin. The cultures were grown at 37°C until an OD600 = 0.8 was reached, and the cells were induced with 1.0 mM isopropyl b-D-1-thiogalactopyranoside (IPTG) for 18 h at 25°C. After induction, the cells were harvested by centrifugation (6000 × g for 20 min at 4°C in SLC-6000 evolution sorvall rotor). The three variants of the tubulin protein were isolated from the inclusion bodies. […]

αI,βI-tubulin = target: T2, αI,βI-tubulin (Homo sapiens, UniProt P07437+Q71U36); assay: Tryptophan fluorescence quenching binding assay, recombinant αI,βI-tubulin heterodimer; details: dissociation constant, calculated
T2 construct: made in house; host or cells: E. coli BL21 (DE3)
T2 sequence (Q71U36 whole entry): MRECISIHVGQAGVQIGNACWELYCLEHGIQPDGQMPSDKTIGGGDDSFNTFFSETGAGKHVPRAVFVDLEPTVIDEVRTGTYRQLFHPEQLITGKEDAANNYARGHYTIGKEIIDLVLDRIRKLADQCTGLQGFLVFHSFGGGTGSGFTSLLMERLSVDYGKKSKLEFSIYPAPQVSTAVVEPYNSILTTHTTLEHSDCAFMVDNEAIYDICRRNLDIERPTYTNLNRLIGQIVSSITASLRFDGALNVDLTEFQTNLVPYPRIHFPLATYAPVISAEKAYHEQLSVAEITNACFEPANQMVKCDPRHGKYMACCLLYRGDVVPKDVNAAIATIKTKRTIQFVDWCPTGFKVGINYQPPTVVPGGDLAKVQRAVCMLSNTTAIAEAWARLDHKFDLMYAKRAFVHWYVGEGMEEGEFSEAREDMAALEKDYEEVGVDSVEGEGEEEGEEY
T2 sequence (P07437 whole entry): as the sequence (P07437 whole entry) above
Method: as §3

αI,βIII-tubulin = target: T3, αI,βIII-tubulin (Homo sapiens, UniProt Q13509+Q71U36); assay: Tryptophan fluorescence quenching binding assay, recombinant αI,βIII-tubulin heterodimer; details: dissociation constant, calculated
T3 construct: His-tag (N); made in house; host or cells: E. coli BL21 (DE3)
T3 sequence (Q71U36 whole entry): as the sequence (Q71U36 whole entry) above
T3 sequence (Q13509 whole entry): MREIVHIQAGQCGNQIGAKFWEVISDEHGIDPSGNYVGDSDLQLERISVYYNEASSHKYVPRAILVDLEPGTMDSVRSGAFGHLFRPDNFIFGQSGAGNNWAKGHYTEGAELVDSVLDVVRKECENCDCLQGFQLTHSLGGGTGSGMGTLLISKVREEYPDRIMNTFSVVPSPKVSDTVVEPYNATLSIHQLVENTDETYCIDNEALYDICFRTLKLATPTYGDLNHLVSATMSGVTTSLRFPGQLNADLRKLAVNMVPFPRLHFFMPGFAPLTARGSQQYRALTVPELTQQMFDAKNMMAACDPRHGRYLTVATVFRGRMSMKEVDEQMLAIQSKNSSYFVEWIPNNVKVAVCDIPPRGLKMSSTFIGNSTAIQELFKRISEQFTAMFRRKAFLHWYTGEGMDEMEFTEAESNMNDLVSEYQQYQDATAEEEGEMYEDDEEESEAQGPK
Method: as §3

IC50 [1] [µM]	IC50 [2] [µM]	Kd [3] [µM]	Kd (βI,βI-tubulin) [µM]	Kd (αI,βI-tubulin) [µM]	Kd (αI,βIII-tubulin) [µM]	Compound	Effect on MT polymerization (tubulin)
~40	~64	–	–	–	–	COc1ccc2c(c1OC)C(=O)O/C2=C\c1ccc2c(c1)OCO2 [Compound 8, (Z)-3-(benzo[d][1,3]dioxol-5-ylmethylene)-6,7-dimethoxyisobenzofuran-1(3H)-one]	destabilize MT
~100	~100	265	426	293	289	COc1ccc2c(c1OC)C(=O)O[C@@H]2[C@H]1c2c(cc3c(c2OC)OCO3)CCN1C [Noscapine]	stabilize MT
